In patent US20230137943A1, “PHOTOPROXIMITY PROFILING OF PROTEIN-PROTEIN INTERACTIONS IN CELLS” (The University of Chicago, priority 2019, published 2023):

Target: T1, FLAG-tagged SNAP-Tag protein (SNAP-FLAG) (Homo sapiens, UniProt P16455, A127T/A154D/C150Q/C62A/E30R/G131K/G132T/G153L/K125A/K32I/L33F/M134L/N157G/Q115S/Q116H/R128A/R135S/S151G/S152D/S159E)
T1 construct: expressed in transfected cells
T1 sequence (P16455 1-182 E30R/K32I/L33F/C62A/Q115S/Q116H/K125A/A127T/R128A/G131K/G132T/M134L/R135S/C150Q/S151G/S152D/G153L/A154D/N157G/S159E limits assumed): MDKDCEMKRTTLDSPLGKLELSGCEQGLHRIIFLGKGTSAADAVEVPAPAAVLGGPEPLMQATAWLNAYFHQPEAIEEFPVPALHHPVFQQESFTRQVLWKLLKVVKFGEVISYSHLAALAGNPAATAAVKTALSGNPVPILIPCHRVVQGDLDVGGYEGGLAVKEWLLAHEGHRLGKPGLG
Assay: PP1 dose response: covalent labeling of SNAP-FLAG in live cells (Western blot)
Type: cell-based
Settings: HEK293T cells stably expressing SNAP-FLAG, increasing doses for two hours, not irradiated
Description: PP1 close response and viability assay: Dose response—Each well of a 6-well plate was seeded with 300,000 HEK293T cells stably expressing either SNAP-FLAG or KEAP-SNAP. After reaching ˜90% confluency the growth media was removed, cells washed with DPBS, and treated with varying concentrations (0, 0.5, 1, 5, 15, 45 μM) of photoproximity probe PP1 in 500 μL serum-free DMEM for 2 hours at 37° C. Post treatment, media was aspirated and non-reacted probe washed out with 3 mL full DMEM over 40 minutes, changing the media twice. Cells were harvested, washed, and lysed in DPBS containing protease inhibitor using a tip sonicator. Lysate was normalized to 1 mg/mL then diluted with loading buffer and run on SDS-PAGE gel that was transferred by western blot to nitrocellulose. The nitrocellulose membrane was stained for biotin and Flag-Tag using streptavidin IR dye (Li-cor #926-32230; Li-cor Biosciences, Lincoln, Nebr., United States of America) and anti-Flag (Sigma #F3165, Sigma-Aldrich, St. Louis, Mo., United States of America; Li-cor #926-68072, Li-cor Biosciences, Lincoln, Nebr., United States of America). Fluorescence images were collected using an Odyssey infrared imager (Li-cor Biosciences, Lincoln, Nebr., United States of America). […]

COc1cc(C(C)OC(=O)NC(CCCCNC(=O)CCC2(C)N=N2)C(=O)NCCCCCNC(=O)CCCCC2SCC3NC(=O)NC32)c([N+](=O)[O-])cc1OCCCC(=O)NCc1ccc(COc2nc(N)nc3[nH]cnc23)cc1 (stereo not shown) [PP1] was tested, and the EC50 was 4.5 µM.
